# In patent publication US20070072209A1, “Methods of treatment and diagnosis of Kaposi's sarcoma (KS) and KS related diseases” (priority 2005, published 2007):
# Tests used:
# [1] = test system: KSHV-infected DMVEC; assay: PMO antisense inhibition of KSHV-induced spindle cell and foci formation (Example 3); format: cell-based, human; conditions: for Extent of PMO-induced Inhibition of Spindle Cell Formation: KSHV-infected DMVEC loaded with gene-specific PMO antisense + EPEI; for Phenotype Inhibition (inhibition of spindle cell formation) / KSHV-induced spindle cell / foci formation (in words): KSHV-infected DMVEC; for Phenotype Inhibition (inhibition of spindle cell formation): gene-specific PMO antisense; for KSHV-induced spindle cell / foci formation (in words): PMO antisense, c-Kit: 1.25 nmol PMO + 2.5 μl EPEI per 35 mm dish
# From the text: Antisense Gene Silencing using PMOs. […] Silencing of such genes precluded progression into the transformed phenotype when silencing occurred prior to transformation, or induced reversion to the normal state when silencing occurred after induction of the transformed state (see TABLE 2 below).
# (§1) Introduction of antisense PMO into KSHV-infected DMVEC. Antisense PMO molecules, for delivery purposes, are typically converted to a paired duplex together with a partially complementary cDNA oligonucleotide in the weakly basic delivery reagent ethoxylated polyethylenimine (EPEI) (Summerton, supra). The anionic complex binds to the cell surface, is taken up by endocytosis and eventually released into the cytosol. A protocol for optimum uptake of antisense PMO in immortalized DMVEC was developed using a modification of the EPEI method. Briefly, uninfected, immortalized DMVECs were incubated for 3 hours at 37° C. with 0.6 nmol/well FITC-PMO complexed with EPEI according to the manufacturer's instructions (GeneTools, LLC, One Summerton Way, Philomath, Oreg. 97370) (e.g., 1.25 nMol oligomer with 2.5 μl EPEI reagent per 35 mm dish, allowing for sufficient antisense uptake without non-specific EPEI-induced toxicity). The PMOs were labeled with FITC to allow for monitoring of loading efficiency by fluorescence microscopy.
# Specifically, DMVEC were infected with KSHV, plated in 35 mm dishes and allowed to grow to about 90% confluence. For treatment, KSHV-infected cells were treated with the anti-c-Kit PMO-antisense oligomer-EPEI delivery reagent complex and incubated for 3 hours at 37° C. in serum-free medium to allow for oligomer uptake. A titration experiment testing a range of different oligomer/EPEI volumes was used to determine that loading 1.25 nmol oligomer with 2.5 μl EPEI reagent per 35 mm dish allowed efficient antisense uptake without non-specific EPEI-induced toxicity. Control (mock-treated) DMVEC cultures were loaded with EPEI reagent and sterile water or sterile water alone. Upon removal of the oligomer-EPEI solution, cell monolayers were rinsed in serum-free medium fed with complete medium and examined daily for one week by phase microscopy for evidence of phenotypic change.
# [2] = test system: DMVEC; assay: Uptake, distribution and persistence of FITC-labeled PMO antisense; format: cell-based, human; conditions: 3 hours after loading, FITC-labeled PMO with EPEI
# From the text: as §1
# Cellular distribution of introduced FITC-labeled PMO antisense molecules. […]
# Therefore, the introduced PMO antisense oligomers were determined to be stable over substantial time periods in DMVEC. […] Moreover, the PMO oligomers were readily taken up by DMVEC and distributed within the cytosol.
# [3] = test system: KSHV; assay: Immunofluorescent staining for latent (LANA-1/ORF73) and early lytic (ORF59) viral proteins after PMO-AS; format: cell-based; conditions: PMO-AS-treated KSHV-infected DMVEC
# From the text: KSHV-infected DMVEC. DMVECs were used as an in vitro model for examining cancerous transformation and viral replication, based, inter alia, on that fact that neoplastic cells in KS tumors are predominantly of vascular origin, whereas KSHV is primarily found in cells of endothelial origin. Specifically, a previously described DMVEC system (Moses et al., J. Virol. 73:6892-6902, 1999) was used for studying infection and transformation by KSHV. Briefly, DMVEC's were immortalized with the E6/E7 genes of human papillomavirus (HPV)-16 prior to infection with KSHV. […] KSHV was obtained from the supernatant of KSHV-infected B-cell lines (e.g., TPA-stimulated BCBL-1 cells). Infection was verified by DNA PCR for amplification of the KS330 BamH1 fragment of the ORF 26 gene, and RT-PCR for the spliced mRNA from the ORF29 gene. The percentage of latently infected cells was determined by immunofluorescent staining for LANA/ORF73. Lytic induction was evaluated with antibodies against an early lytic protein ORF59/PF-8 and a late lytic glycoprotein ORF K8.1A/B. DMVEC were used for experiments when 90% of cells expressed ORF73. In the absence of chemical induction, 2-5% of infected cells expressed ORF59 with approximately 10% of the ORF59-positive cells expressing K8.1A/B. Lytic replication can be induced, however, using phorbol esters such as […] (PMA) providing the ability to look for host genes involved in, or modulated by the lytic cycle as well.
# To ascertain whether PMO-AS treatment could be indirectly influencing cell phenotype through an effect on KSHV lytic replication, cells treated with PMO-AS against c-Kit, RDC1 and Neuritin were evaluated by immunofluorescent staining for expression of latent (LANA-1/ORF73) and early lytic (ORF59) viral proteins as previously described (Moses, 1999).
Substance,Extent of PMO-induced Inhibition of Spindle Cell Formation [1],Phenotype Inhibition (inhibition of spindle cell formation) [1],KSHV-induced spindle cell / foci formation (in words) [1],KSHV-induced spindle cell / foci formation (in words) ([1]; listed as c-Kit),cells with FITC-PMO concentrated in intracellular vesicles (endosomes) [2],expression of ORF73 (latent viral protein) [3]
"KIT: FITC-labeled PMO targeting the start codon of c-Kit, CGCCTCTCATCGCGGTAGCTGCG (SEQ ID NO:21) (all phosphorodiamidate morpholino (PMO); FITC label attached, position not given here)",full,Full,fully reversed spindle cell formation,did not develop foci,about 70%,maintained expression of ORF73
"Neuritin: PMO antisense to Neuritin, TTAACTCCCATCCTACGTTTAGTCA (SEQ ID NO:19) (all phosphorodiamidate morpholino (PMO); delivered paired with partially complementary DNA oligo (Special Delivery))",full,Full,fully reversed spindle cell formation,–,–,maintained expression of ORF73
"RDC-1: PMO antisense to RDC-1, GAAGAGATGCAGATCCATCGTTCTG (SEQ ID NO:15) (all phosphorodiamidate morpholino (PMO); delivered paired with partially complementary DNA oligo (Special Delivery))",full,full and Full,fully reversed spindle cell formation,–,–,maintained expression of ORF73
